Measured values reported in patent US7119111B2, “2-oxo-1,3,4-trihydroquinazolinyl derivatives and methods of use” (Amgen, Inc., priority 2002, dated 2006).

Experiment: not given
Settings: not given

Compound | melting point [°C]
O=C1Nc2cc(-c3cccc(O)c3)ccc2CN1c1csc(-c2ccncc2)n1 [Example 31, 7-(3-Hydroxyphenyl)-3-(2-(4-pyridyl) (1,3-thiazol-4-yl))-1,3,4-trihydroquinazolin-2-one] | 320 to 322
O=C1Nc2cc(-c3cccc(OCCN4CCCCC4)c3)ccc2CN1c1csc(-c2ccncc2)n1 [Example 32, 7-[3-(2-Piperidylethoxy)phenyl]-3-(2-(4-pyridyl)(1,3-thiazol-4-yl))-1,3,4-trihydroquinazolin-2-one] | 206 to 208
O=C1Nc2cc(F)c(N3CCCCC3)cc2CN1c1csc(-c2ccncc2)n1 [Example 56, 7-Fluoro-6-piperidyl-3-(2-(4-pyridyl)(1,3-thiazol-4-yl))-1,3,4-trihydroquinazolin-2-one] | 312 to 314
COc1cccc(-c2cccc3c2CN(c2csc(-c4ccncc4)n2)C(=O)N3)c1 [Example 57, 5-(3-Methoxyphenyl)-3-(2-(4-pyridyl)(1,3-thiazol-4-yl))-1,3,4-trihydroquinazolin-2-one] | 250 to 252

More lines, now with the values ahead:

melting point [°C] | Compound
> 300 | O=C1Nc2cc(C(F)(F)F)ccc2CN1c1nc(-c2ccncc2)ns1 [Example 52, 3-(3-(4-Pyridyl)(1,2,4-thiadiazol-5-yl))-7-(trifluoromethyl)-1,3,4-trihydroquinazolin-2-one]
> 300 | O=C1Nc2cccc(N3CCOCC3)c2CN1c1nc(-c2ccncc2)ns1 [Example 53, 5-Morpholin-4-yl-3-(3-(4-pyridyl)(1,2,4-thiadiazol-5-yl))-1,3,4-trihydroquinazolin-2-one]
> 275 | CN1CCC[C@H]1COc1ccc2c(c1)CN(c1nc(-c3ccncc3)ns1)C(=O)N2 [Example 54, 6-[((2S)-1-Methylpyrrolidin-2-yl)methoxy]-3-(3-(4-pyridyl)-(1,2,4-thiadiazol-5-yl))-1,3,4-trihydroquinazolin-2-one]
> 250 | CN1CCC[C@H]1COc1cccc2c1CN(c1nc(-c3ccncc3)ns1)C(=O)N2 [Example 55, 5-[((2S)-1-Methylpyrrolidin-2-yl)methoxy]-3-(3-(4-pyridyl)-(1,2,4-thiadiazol-5-yl))-1,3,4-trihydroquinazolin-2-one]

Experiment: Cell Proliferation Assay (BrdU incorporation)
Assay type: cell-based
Settings: Homo sapiens; 48 h incubation, BrdU labeling; cell line not specified; read-out: inhibited cell proliferation IC50
Procedure: Cell proliferation was measured using a calorimetric immunoassay (B/M Roche #164 7229), based on the measurement of pyrimidine analog BrdU incorporation during DNA synthesis in proliferating cells. Cells, e.g., human PC-3 prostate carconima cells, huFSF normal human foreskin fibroblast cells, HCT 116 human colon carcinoma cells or HT 29 human colon carcinoma cells, were cultured in a 96-well plate for 24 h, until a cell count of 3×10^3 to 6×10^3 cells per well in duplicate wells were achieved, in a well volume of 200 μl. The media was changed and 1 μl of 200× control inhibitors or compounds was added to each well. Cells are incubated for 48 h at 37° C. The cells were labeled with BrdU for 4 h at 37° C. The labeling medium was removed and in one step, the cells were fixed and the DNA was denatured (30 min at RT). Anti-BrdU-POD antibody was added to bind to the BrdU incorporated in newly synthesized cellular DNA (60–90 min at RT). The cells were washed 3×with washing buffer, substrate (100 μl) was added and the cells were incubated for 10 min at RT. The substrate reaction was stopped by adding 25 μl of 1M H2SO4. The amount of BrdU incorporated was quantified by measuring the absorbance at 450 nm using ELISA reader. IC50's were calculated using GraFit (Sigma).

Compound | IC50 [µM]
COC(=O)c1cccc2c1CN(c1csc(-c3ccncc3)n1)C(=O)N2 [Example 2, Methyl 2-oxo-3-(2-(4-pyridyl)(1,3-thiazol-4-yl))-1,3,4-trihydroquinazoline-5-carboxylate] | < 5
O=C1Nc2cccc(CN3CCCCC3)c2CN1c1csc(-c2ccncc2)n1 [Example 15, 5-(Piperidylmethyl)-3-(2-(4-pyridyl)(1,3-thiazol-4-yl))-1,3,4-trihydroquinazolin-2-one] | < 5
Nc1ccc2c(c1)NC(=O)N(c1csc(-c3ccncc3)n1)C2 [Example 28, 7-Amino-3-(2-(4-pyridyl)(1,3-thiazol-4-yl))-1,3,4-trihydroquinazolin-2-one] | < 5
O=C1Nc2cc(-c3cccc(O)c3)ccc2CN1c1csc(-c2ccncc2)n1 [Example 31, 7-(3-Hydroxyphenyl)-3-(2-(4-pyridyl) (1,3-thiazol-4-yl))-1,3,4-trihydroquinazolin-2-one] | < 5
O=C1Nc2cc(-c3cccc(OCCN4CCCCC4)c3)ccc2CN1c1csc(-c2ccncc2)n1 [Example 32, 7-[3-(2-Piperidylethoxy)phenyl]-3-(2-(4-pyridyl)(1,3-thiazol-4-yl))-1,3,4-trihydroquinazolin-2-one] | < 5
O=C1Nc2cccc(-c3ccccc3)c2CN1c1csc(-c2ccncc2)n1 [Example 34, 5-Phenyl-3-(2-(4-pyridyl)(1,3-thiazol-4-yl))-1,3,4-trihydroquinazolin-2-one] | < 5
